Reference: patent US10829796B2, “Bacteria identification and antimicrobial susceptibility test” (priority 2015, dated 2020)

Tested on: bacteria in clinical bovine mastitis milk samples
Assay: Combined bacteria identification and antimicrobial susceptibility test (colour of wells, MIC) on clinical bovine mastitis milk samples
Format: cell-based
Protocol: Clinical bovine mastitis milk samples were collected by a vet clinic in South Island, New Zealand. Samples were stored in the freezer for several months and shipped frozen to the testing facility. In this Example, the term “clinical” means that dairy cows had clinical symptoms of an udder infection e.g. cow behaved unusual, milk clots, swollen udder among other typical symptoms. Testing was executed in microwell plate comprising of 24 wells (3×8 wells).
In addition, 20 ul of clinical mastitis sample was added to each well with a laboratory pipette.
(§1) Abbreviations • 1. 80 ul GC+10 ul Tell: 80 ul Giolitti Cantoni base broth+10 ul Tellurite solution (1%); • 2. 80 ul TSB/Esc/Fer Cit: 80 ul Tryptic soy broth containing 0.25% Esculin and 0.125% Ammonium Ferric Citrate; • 3. 80 ul TSB/Esc/Fer Cit+10 ul Genta: 80 ul Tryptic soy broth containing 0.25% Esculin and 0.125% Ammonium Ferric Citrate+10 ul of Gentamycin solution 10 mg/ml; • 4. 80 ul McC/PR25: 80 ul MacConkey broth (single strength) containing 0.0125% phenol red; and • 5. 80 ul TSB/PR25: 80 ul Tryptic soy broth containing 0.0125% phenol red. Bacteria Identification
Columns A to C and rows 1 and 2 were used for bacteria identification. A1: coagulase positive Staph; A2: Staphylococci; B1: Strep group D; B2: Strep group D; C1: general enrichment media (gram+ and gram-bacteria); C2: coliform bacteria.
Column A3 to A8: serial dilution of benzyl penicillin as potassium. Column B3 to B8: serial dilution of ceftiofur as hydrochloride. Column C3 to C8: serial dilution of cloxacillin as sodium. Antibiotic concentrations are listed as free form ranging between 4 ug/ml to 0.05 ug/ml.
Minimum inhibitory substance concentration (MIC) is here defined as the concentration if a colour change occurs between two wells (one well remains red with drug concentration 1, the other one yellow with drug concentration 2, whereas drug concentration 1 is larger than drug concentration 2) then the MIC is the value of drug concentration 1.
Table 21 indicates the microwell plate configuration #1; Drugs: Benzylpenicillin as potassium; Cloxacillin as sodium; Ceftiofur as hydrochloride; Drug concentration in each well (A3 to C8) is based on 80 μl composition+10 μl drug solution+20 μl clinical mastitis milk sample and equivalent to listed drug concentration in μg/ml; 20 ul of clinical bovine mastitis milk sample was added to each well (A1 to C8).
In addition, each well received one drop of clinical sample from a transfer pipette which was on average about 35 mg. This was determined through weighing the well plate prior and after the addition of clinical mastitis samples. This weight was then divided by 24.
as §1, with “•” for “Abbreviations •”, “red.” for “red. Bacteria Identification”
Columns A to C and rows 1 and 2 were used for bacteria identification. A1: coagulase positive Staph; A2: Staphylococci; B1: Strep Group D; B2: -; C1: general enrichment media (gram+ and gram-); C2: coliform bacteria.
Column A3 to A8: serial dilution of benzyl penicillin as potassium. Drug concentrations given as free form ranging between 4 ug/ml to 0.05 ug/ml. Column B3 to B8: serial dilution of ceftiofur as hydrochloride. Drug concentrations given as free form ranging between 4 ug/ml to 0.05 ug/ml. Column C3 to C8: serial dilution of cloxacillin as sodium. Drug concentrations given as free form ranging between 4 ug/ml to 0.05 ug/ml.

`CC1(C)S[C@@H]2[C@H](NC(=O)Cc3ccccc3)C(=O)N2[C@H]1C(=O)O` [benzyl penicillin] was tested, and the “Colour of media in each well” value (ID 1, T = 22 h, 37° C., plate configuration #1, drug 0.05 μg/ml) was “orange”, the “Colour of media in each well” value (ID 1, T = 22 h, 37° C., plate configuration #1, drug 0.1 μg/ml) was “red” and the “Colour of media in each well” value (ID 1, T = 22 h, 37° C., plate configuration #1, drug 0.5 μg/ml) was “red”. For the same compound, the “Colour of media in each well” value (ID 1, T = 22 h, 37° C., plate configuration #1, drug 1 μg/ml) was “red”, the “Colour of media in each well” value (ID 1, T = 22 h, 37° C., plate configuration #1, drug 2 μg/ml) was “red” and the “Colour of media in each well” value (ID 1, T = 22 h, 37° C., plate configuration #1, drug 4 μg/ml) was “red”. The “Colour of media in each well” value (ID 2, T = 48 h, 37° C., plate configuration #1, drug 0.05 μg/ml) was “yellow”, the “Colour of media in each well” value (ID 2, T = 48 h, 37° C., plate configuration #1, drug 0.1 μg/ml) was “yellow” and the “Colour of media in each well” value (ID 2, T = 48 h, 37° C., plate configuration #1, drug 0.5 μg/ml) was “yellow”. For the same compound, the “Colour of media in each well” value (ID 2, T = 48 h, 37° C., plate configuration #1, drug 1 μg/ml) was “yellow”, the “Colour of media in each well” value (ID 2, T = 48 h, 37° C., plate configuration #1, drug 2 μg/ml) was “yellow” and the “Colour of media in each well” value (ID 2, T = 48 h, 37° C., plate configuration #1, drug 4 μg/ml) was “yellow”. For the same compound, the “Colour of media in each well” value (ID 3, T = 22 h, 37° C., plate configuration #1, drug 0.05 μg/ml) was “yellow”, the “Colour of media in each well” value (ID 3, T = 22 h, 37° C., plate configuration #1, drug 0.1 μg/ml) was “yellow” and the “Colour of media in each well” value (ID 3, T = 22 h, 37° C., plate configuration #1, drug 0.5 μg/ml) was “yellow”. The “Colour of media in each well” value (ID 3, T = 22 h, 37° C., plate configuration #1, drug 1 μg/ml) was “yellow”, the “Colour of media in each well” value (ID 3, T = 22 h, 37° C., plate configuration #1, drug 2 μg/ml) was “yellow” and the “Colour of media in each well” value (ID 3, T = 22 h, 37° C., plate configuration #1, drug 4 μg/ml) was “yellow”. For the same compound, the “Colour of media in each well” value (ID 3, T = 23 h, 37° C., Table 34, drug 0.05 μg/ml) was “yellow”, the “Colour of media in each well” value (ID 3, T = 23 h, 37° C., Table 34, drug 0.1 μg/ml) was “yellow” and the “Colour of media in each well” value (ID 3, T = 23 h, 37° C., Table 34, drug 0.5 μg/ml) was “yellow”. The “Colour of media in each well” value (ID 3, T = 23 h, 37° C., Table 34, drug 1 μg/ml) was “yellow”, the “Colour of media in each well” value (ID 3, T = 23 h, 37° C., Table 34, drug 2 μg/ml) was “yellow” and the “Colour of media in each well” value (ID 3, T = 23 h, 37° C., Table 34, drug 4 μg/ml) was “yellow”. The “Colour of media in each well” value (ID 3, T~7 h, 37° C., Table 34, drug 0.05 μg/ml) was “red”, the “Colour of media in each well” value (ID 3, T~7 h, 37° C., Table 34, drug 0.1 μg/ml) was “red” and the “Colour of media in each well” value (ID 3, T~7 h, 37° C., Table 34, drug 0.5 μg/ml) was “red”. For the same compound, the “Colour of media in each well” value (ID 3, T~7 h, 37° C., Table 34, drug 1 μg/ml) was “red”, the “Colour of media in each well” value (ID 3, T~7 h, 37° C., Table 34, drug 2 μg/ml) was “red” and the “Colour of media in each well” value (ID 3, T~7 h, 37° C., Table 34, drug 4 μg/ml) was “red”. For the same compound, the “Colour of media in each well” value (ID 3, T~11 h, 37° C., Table 34, drug 0.05 μg/ml) was “red”, the “Colour of media in each well” value (ID 3, T~11 h, 37° C., Table 34, drug 0.1 μg/ml) was “red” and the “Colour of media in each well” value (ID 3, T~11 h, 37° C., Table 34, drug 0.5 μg/ml) was “red”. The “Colour of media in each well” value (ID 3, T~11 h, 37° C., Table 34, drug 1 μg/ml) was “red”, the “Colour of media in each well” value (ID 3, T~11 h, 37° C., Table 34, drug 2 μg/ml) was “red” and the “Colour of media in each well” value (ID 3, T~11 h, 37° C., Table 34, drug 4 μg/ml) was “red”. The “Colour of media in each well” value (ID 4, T = 22 h, 37° C., plate configuration #1, drug 0.05 μg/ml) was “yellow”, the “Colour of media in each well” value (ID 4, T = 22 h, 37° C., plate configuration #1, drug 0.1 μg/ml) was “yellow” and the “Colour of media in each well” value (ID 4, T = 22 h, 37° C., plate configuration #1, drug 0.5 μg/ml) was “yellow”. For the same compound, the “Colour of media in each well” value (ID 4, T = 22 h, 37° C., plate configuration #1, drug 1 μg/ml) was “orange”, the “Colour of media in each well” value (ID 4, T = 22 h, 37° C., plate configuration #1, drug 2 μg/ml) was “orange” and the “Colour of media in each well” value (ID 4, T = 22 h, 37° C., plate configuration #1, drug 4 μg/ml) was “yellow”. For the same compound, the “Colour of media in each well” value (ID 5, T = 23 h, 37° C., plate configuration #2, drug 0.05 μg/ml) was “red”, the “Colour of media in each well” value (ID 5, T = 23 h, 37° C., plate configuration #2, drug 0.1 μg/ml) was “red” and the “Colour of media in each well” value (ID 5, T = 23 h, 37° C., plate configuration #2, drug 0.5 μg/ml) was “red”. For the same compound, the “Colour of media in each well” value (ID 5, T = 23 h, 37° C., plate configuration #2, drug 1 μg/ml) was “red”, the “Colour of media in each well” value (ID 5, T = 23 h, 37° C., plate configuration #2, drug 2 μg/ml) was “red” and the “Colour of media in each well” value (ID 5, T = 23 h, 37° C., plate configuration #2, drug 4 μg/ml) was “red”. For the same compound, the “Colour of media in each well” value (ID 5 to 8, T = 0 h (prior incubation, reference), plate configuration #2, drug 0.05 μg/ml) was “red”, the “Colour of media in each well” value (ID 5 to 8, T = 0 h (prior incubation, reference), plate configuration #2, drug 0.1 μg/ml) was “red” and the “Colour of media in each well” value (ID 5 to 8, T = 0 h (prior incubation, reference), plate configuration #2, drug 0.5 μg/ml) was “red”.
